According to patent publication US20230339981A1, “KRAS G12D MODULATING COMPOUNDS” (priority 2022, published 2023):
pEC50, pIC50: −log10 of the molar value.

Legend:
GP2D (KRAS G12D) cells = test: 2D cell viability assay (CellTiter-Glo); assay type: cell-based; conditions: GP2d, 96 h, 4 days
Experimental: Example B. 2D Cell Viability Assay
Compounds were tested in a 384-well format for their ability to inhibit the viability of GP2D (KRAS G12D) cells in 2D assays. Compounds were serially diluted (1:3) in DMSO. The LabCyte ECHO Acoustic dispenser system was used to pre-spot assay plates with 200 nL of test molecule per well. 1000 cells/well (40 μL volume per well) in RPMI medium with 10% FBS, and Penicillin-Streptomycin-Glutamine were plated in pre-spotted 384-well plates (Greiner, Catalog #781076) on the BioTEK EL406 liquid dispenser with a 5 μL dispensing cassette (BioTek 7170011). The plates were incubated at 37° C., 5% CO2 for 4 days before addition of CellTiter-Glo (CTG) reagent and measurement of luminescence signal. EC50 values were defined as the compound concentration that causes a 50% decrease in luminescence signal and were calculated using a sigmoidal dose-response model to generate curve fits.

GDP-loaded KRAS G12D = GDP-loaded KRAS G12D (Homo sapiens (Human), UniProt P01116, G12D); test: KRAS G12D (GDP) biochemical assay (TR-FRET probe displacement); assay type: binding; conditions: 2 hours
Experimental: Example A. KRAS G12D (GDP) Biochemical Assay
Compounds were tested for binding to GDP-loaded KRAS G12D in a 384-well assay format using a TR-FRET probe displacement assay in buffer consisting of 50 mM Hepes (pH 7.4), 150 mM NaCl, 5 mM MgCl2 and 0.005% Tween-20. […] Compounds were serially diluted (1:3) in DMSO. The LabCyte ECHO Acoustic dispenser system was used to pre-spot the assay plates (384-well Non-Binding Surface plates, Corning, Catalog #3824) with 50 nL of compound. The compounds were pre-incubated with 5 μL of 2× final enzyme concentration for 30 minutes before adding 5 μL of 2× final concentration of Eu-streptavidin and TR-FRET probe (10 μL final reaction volume). The plates were incubated at room temperature for 2 hours before measuring TR-FRET ratio on the Envision plate reader. IC50 values were defined as the compound concentration that causes a 50% decrease in TR-FRET ratio and were calculated using a sigmoidal dose-response model to generate curve fits.

GDP-loaded KRAS G12D, sequence (P01116-2 other isoform, or with tags, fused parts or gaps G12D): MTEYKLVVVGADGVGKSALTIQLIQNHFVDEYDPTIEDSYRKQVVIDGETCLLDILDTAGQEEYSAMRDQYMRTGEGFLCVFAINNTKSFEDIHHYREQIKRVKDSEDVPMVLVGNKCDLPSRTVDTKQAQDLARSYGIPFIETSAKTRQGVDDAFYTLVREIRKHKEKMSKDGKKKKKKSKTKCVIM

Structure (SMILES)	pEC50 (GP2D (KRAS G12D) cells)	pIC50 (GDP-loaded KRAS G12D)
C#Cc1c(F)ccc2cc(O)cc(-c3nc4c5c(nc(OC[C@@]67CCCN6[C@H](COC(C(F)(F)F)(C(F)(F)F)C(F)(F)F)CC7)nc5c3F)N3C[C@H]5CC[C@H](N5)[C@H]3CO4)c12 [Example 55, 5-ethynyl-6-fluoro-4-((5aS,6S,9R)-1-fluoro-12-(((3S,7aS)-3-(((1,1,1,3,3,3-hexafluoro-2-(trifluoromethyl)propan-2-yl)oxy)methyl)tetrahydro-1H-pyrrolizin-7a(5H)-yl)methoxy)-5a,6,7,8,9,10-hexahydro-5H-4-oxa-3,10a,11,13,14-pentaaza-6,9-methanonaphtho[1,8-ab]heptalen-2-yl)naphthalen-2-ol]	9.10	9.30
Fc1cc(-c2nc3c4c(nc(OC[C@@]56CCCN5C[C@H](F)C6)nc4c2F)N2C[C@H]4CC[C@H](N4)[C@H]2CO3)c2ccccc2c1 [Example 47, (5aS,6S,9R)-1-fluoro-2-(3-fluoronaphthalen-1-yl)-12-(((2R,7aS)-2-fluorotetrahydro-1H-pyrrolizin-7a(5H)-yl)methoxy)-5a,6,7,8,9,10-hexahydro-5H-4-oxa-3,10a,11,13,14-pentaaza-6,9-methanonaphtho[1,8-ab]heptalene]	< 6.00	5.47
C#Cc1c(F)ccc2cccc(-c3nc4c5c(nc(OCC67CCCN6C[C@H](OC(F)(F)F)C7)nc5c3F)N3C[C@H]5CC[C@H](N5)[C@H]3CC4)c12 (stereo partly drawn) [Example 137, (5aR,6S,9R)-2-(8-ethynyl-7-fluoronaphthalen-1-yl)-1-fluoro-12-((cis-2-(trifluoromethoxy)tetrahydro-1H-pyrrolizin-7a(5H)-yl)methoxy)-4,5,5a,6,7,8,9,1O-octahydro-3,10a,11,13,14-pentaaza-6,9-methanonaphtho[1,8-ab]heptalene]	7.00	7.61
C#Cc1c(F)ccc2cccc(-c3nc4c5c(nc(OC[C@@]67CCCN6C[C@@]6(CC6(F)F)C7)nc5c3F)N3C[C@H]5CC[C@H](N5)[C@H]3CC4)c12 [Example 121, (5aR,6S,9R)-12-(((1S,7a'S)-2,2-difluorodihydro-1′H,3′H-spiro[cyclopropane-1,2′-pyrrolizin]-7a′(5′H)-yl)methoxy)-2-(8-ethynyl-7-fluoronaphthalen-1-yl)-1-fluoro-4,5,5a,6,7,8,9,10-octahydro-3,10a,11,13,14-pentaaza-6,9-methanonaphtho[1,8-ab]heptalene]	8.15	9.52
C#Cc1c(F)ccc2cc(O)cc(-c3nc4c5c(nc(OC[C@@]67CCCN6[C@H](COC(=O)N(C)c6cccc(S(F)(F)(F)(F)F)c6)CC7)nc5c3F)N3C[C@H]5CC[C@H](N5)[C@H]3CO4)c12 [Example 51, ((3S,7aS)-7a-((((5aS,6S,9R)-2-(8-ethynyl-7-fluoro-3-hydroxynaphthalen-1-yl)-1-fluoro-5a,6,7,8,9,10-hexahydro-5H-4-oxa-3,10a,11,13,14-pentaaza-6,9-methanonaphtho[1,8-ab]heptalen-12-yl)oxy)methyl)hexahydro-1H-pyrrolizin-3-yl)methyl methyl(3-(pentafluoro-λ^6-sulfaneyl)phenyl)carbamate]	7.01	8.70
Fc1c(-c2cccc3ccccc23)nc2c3c(nc(OC[C@@]45CCCN4C[C@H](F)C5)nc13)N1C[C@H]3CC[C@H](N3)[C@H]1CO2 [Example 46, (5aS,6S,9R)-1-fluoro-12-(((2R,7aS)-2-fluorotetrahydro-1H-pyrrolizin-7a(5H)-yl)methoxy)-2-(naphthalen-1-yl)-5a,6,7,8,9,10-hexahydro-5H-4-oxa-3,10a,11,13,14-pentaaza-6,9-methanonaphtho[1,8-ab]heptalene]	< 6.00	6.04
C#Cc1c(F)ccc2cc(O)cc(-c3nc4c5c(nc(OC[C@@]67CCCN6C[C@H](F)C7)nc5c3F)N3C[C@H]5CC[C@H](N5)[C@H]3[C@H](C)O4)c12 [Example 53, 5-ethynyl-6-fluoro-4-((5S,5aS,6S,9R)-1-fluoro-12-(((2R,7aS)-2-fluorotetrahydro-1H-pyrrolizin-7a(5H)-yl)methoxy)-5-methyl-5a,6,7,8,9,10-hexahydro-5H-4-oxa-3,10a,11,13,14-pentaaza-6,9-methanonaphtho[1,8-ab]heptalen-2-yl)naphthalen-2-ol]	8.70	10.00
C#Cc1c(F)ccc2cccc(-c3nc4c5c(nc(OC[C@]67CCCN6C[C@@H](OC(F)(F)F)C7)nc5c3F)N3C[C@H]5CC[C@H](N5)[C@H]3CC4)c12 (stereo in doubt) [Example 142, (5aR,6S,9R)-2-(8-ethynyl-7-fluoronaphthalen-1-yl)-1-fluoro-12-((trans-2-(trifluoromethoxy)tetrahydro-1H-pyrrolizin-7a(5H)-yl)methoxy)-4,5,5a,6,7,8,9,10-octahydro-3,10a,11,13,14-pentaaza-6,9-methanonaphtho[1,8-ab]heptalene]	7.02	8.44
C#Cc1c(F)ccc2cc(O)cc(-c3nc4c5c(nc(OCC6(CN7CC[C@H](C(F)(F)F)C7)CC6)nc5c3F)N3C[C@H]5CC[C@H](N5)[C@H]3CO4)c12 [Example 44, 5-ethynyl-6-fluoro-4-((5aS,6S,9R)-1-fluoro-12-((1-(((S)-3-(trifluoromethyl)pyrrolidin-1-yl)methyl)cyclopropyl)methoxy)-5a,6,7,8,9,10-hexahydro-5H-4-oxa-3,10a,11,13,14-pentaaza-6,9-methanonaphtho[1,8-ab]heptalen-2-yl)naphthalen-2-ol]	8.15	8.70
Oc1cc(-c2nc3c4c(nc(OC[C@@]56CCCN5C[C@H](F)C6)nc4c2F)N2CC4CCC(N4)[C@@H]2CO3)c2ccccc2c1 (stereo in doubt) [Example 21, 4-((5aR,6S,9R)-1-fluoro-12-(((2R,7aS)-2-fluorotetrahydro-1H-pyrrolizin-7a(5H)-yl)methoxy)-5a,6,7,8,9,10-hexahydro-5H-4-oxa-3,10a,11,13,14-pentaaza-6,9-methanonaphtho[1,8-ab]heptalen-2-yl)naphthalen-2-ol]	5.51	5.68
Oc1cc(-c2nc3c4c(nc(OC[C@@]56CCCN5C[C@H](F)C6)nc4c2F)N2C[C@H]4CC[C@H](N4)[C@H]2CO3)c2c(F)c(F)c(F)c(F)c2c1 [Example 12, 5,6,7,8-tetrafluoro-4-((5aS,6S,9R)-1-fluoro-12-(((2R,7aS)-2-fluorotetrahydro-1H-pyrrolizin-7a(5H)-yl)methoxy)-5a,6,7,8,9,10-hexahydro-5H-4-oxa-3,10a,11,13,14-pentaaza-6,9-methanonaphtho[1,8-ab]heptalen-2-yl)naphthalen-2-ol]	6.89	8.22
C#Cc1c(F)ccc2cccc(-c3nc4c5c(nc(OCC6(CN7CCN(CC(F)(F)F)CC7)CC6)nc5c3F)N3C[C@H]5CC[C@H](N5)[C@@H]3[C@@H](C)C4)c12 [Example 101, (5S,5aS,6S,9R)-2-(8-ethynyl-7-fluoronaphthalen-1-yl)-1-fluoro-5-methyl-12-((1-((4-(2,2,2-trifluoroethyl)piperazin-1-yl)methyl)cyclopropyl)methoxy)-4,5,5a,6,7,8,9,10-octahydro-3,10a,11,13,14-pentaaza-6,9-methanonaphtho[1,8-ab]heptalene]	6.76	7.90
C#Cc1c(F)ccc2cccc(-c3nc4c5c(nc(OCC6(CN7CCC(OC(F)(F)F)CC7)CC6)nc5c3F)N3C[C@H]5CC[C@H](N5)[C@@H]3[C@@H](C)C4)c12 [Example 88, (5S,5aS,6S,9R)-2-(8-ethynyl-7-fluoronaphthalen-1-yl)-1-fluoro-5-methyl-12-((1-((4-(trifluoromethoxy)piperidin-1-yl)methyl)cyclopropyl)methoxy)-4,5,5a,6,7,8,9,10-octahydro-3,10a,11,13,14-pentaaza-6,9-methanonaphtho[1,8-ab]heptalene]	6.59	7.44
Oc1cc(-c2nc3c4c(nc(OC[C@@]56CCCN5C[C@H](F)C6)nc4c2F)N2CC4CCC(N4)[C@H]2CO3)c2ccccc2c1 (stereo in doubt) [Example 18, 4-((5aS,6S,9R)-1-fluoro-12-(((2R,7aS)-2-fluorotetrahydro-1H-pyrrolizin-7a(5H)-yl)methoxy)-5a,6,7,8,9,10-hexahydro-5H-4-oxa-3,10a,11,13,14-pentaaza-6,9-methanonaphtho[1,8-ab]heptalen-2-yl)naphthalen-2-ol]	< 5.00	< 6.00
Oc1cc(-c2nc3c4c(nc(OC[C@@]56CCCN5C[C@H](F)C6)nc4c2F)N2C[C@H]4CC[C@H](N4)[C@H]2CO3)c2c(SC(F)(F)F)c(F)ccc2c1 [Example 54, 6-fluoro-4-((5aS,6S,9R)-1-fluoro-12-(((2R,7aS)-2-fluorotetrahydro-1H-pyrrolizin-7a(5H)-yl)methoxy)-5a,6,7,8,9,10-hexahydro-5H-4-oxa-3,10a,11,13,14-pentaaza-6,9-methanonaphtho[1,8-ab]heptalen-2-yl)-5-((trifluoromethyl)thio)naphthalen-2-ol]	7.38	8.52
